A word on the AC50: it is the concentration giving half of the maximal activity seen.

The source of these data is PubChem BioAssay AID463199 (Broad Institute, 2010).

Active and inactive are the calls of the source.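 How the source made its calls: active means AC50, the dose giving half-maximal effect, exceeds a fixed cutoff for a compound that rescues yeast growth under heat; inactive means the rest, inconclusive results apart.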

In this assay the test system is S. cerevisiae Burl-1 ts mutant growth, BacTiter-Glo, 38.5C 24 h. Nature of the assay: restored growth of temperature-sensitive Burl-1 yeast – whole organism, S. cerevisiae, Burl-1 ts mutant, luminescence, counter-screen for SUMOylation pathway inhibitor project, dose response (AID 463199).
Regarding `CCN1C(=NCc2cccc(Cl)c2)N[C@@H](c2cccc(F)c2)C(C(=O)OC)=C1C`, the AC50 is > 42 µM (inactive).
The same measure for `CCN(C(=O)Cn1c(=O)oc2ccccc21)c1cccc(C)c1`: > 42 µM (inactive).
The same measure for `O=C(Cc1ccccc1)N1CCCC1c1ccccc1` (stereo not given): > 42 µM (inactive).
As for `O=C(CSc1nnc(COc2ccccc2Cl)o1)NC(=O)NC1CCCC1`, the AC50 is > 42 µM (inactive).
As to `Cc1ccccc1OCc1nc(-c2ccccc2)no1`, the AC50 was > 42 µM (inactive).
The same measure for `CS(=O)(=O)N(CCc1ccccc1)CC(=O)NCc1cccnc1`: > 42 µM (inactive); for `Cc1c(C(=O)N2CCN(CCc3ccccc3)CC2)oc2ccccc12`: > 42 µM (inactive); for `Cc1cc(C(F)F)n2ncc(C(=O)NCCc3ccc(Cl)cc3)c2n1`: > 42 µM (inactive).
The value for `Cc1ccn2cc(-c3cnoc3C)nc2c1` was > 42 µM (inactive); that for `CCCOc1ccc(C(=O)NCc2ccco2)cc1` was > 42 µM (inactive).
The same measure for `COc1ccccc1CCNC(=O)/C(=C/c1cccnc1)NC(=O)c1ccccc1`: > 42 µM (inactive); for `CCn1c(SCC(N)=O)nnc1-c1cc2c(C)nn(-c3ccccc3)c2s1`: > 42 µM (inactive); for `CC(C)n1c(O)c(N=Nc2ccccn2)c2ccccc21`: > 42 µM (inactive).
For `Cc1nnc(SCC(=O)NCc2ccccc2Cl)[nH]c1=O`, the AC50 is > 42 µM (inactive).
As to `Cn1nc(C(=O)NCCc2ccc(Cl)cc2)c2c1-c1ccccc1S(=O)(=O)C2`, the AC50 was > 42 µM (inactive).
The value for `CCC(=O)N1c2ccc(S(=O)(=O)N3CCN(c4ccc([N+](=O)[O-])cc4)CC3)cc2CC1C` (stereo not given) was > 42 µM (inactive); that for `CCc1ccccc1NC(=O)N[C@@H](C)C(=O)OC` was > 42 µM (inactive); that for `C/C(=N/OCO/N=C(\C)c1ccccc1)c1ccccc1` was > 42 µM (inactive).
Take `COc1ccc(NC(=O)c2ccc(S(=O)(=O)N(C)c3ccccc3)cc2)cn1`: the AC50 was > 42 µM (inactive).
The same measure for `N#Cc1cc([N+](=O)[O-])cnc1NCC(O)CO` (stereo not given): > 42 µM (inactive).
The value for `CCOC(=O)CN1NC2(CCC(C(C)(C)C)CC2)NC1=S` (stereo not given) was > 42 µM (inactive); that for `O=C(OCCCCOC(=O)c1ccccc1)c1ccccc1` was > 42 µM (inactive); that for `COc1ccc([N+](=O)[O-])c2c(=O)ccoc12` was > 42 µM (inactive).
The same measure for `CCCCC1=CC2=CC(=O)C(C)(OC(=O)CC)C(=O)C2=CN1CCCOC(C)C` (stereo not given): > 42 µM (inactive); for `COCC(C)n1c(SCC(=O)NNC(=O)c2ccccc2)nc2ccccc2c1=O` (stereo not given): > 42 µM (inactive); for `CCOC(=O)C1(CCOc2ccccc2)CCN(Cc2cccc(OC)c2O)CC1`: > 42 µM (inactive).
On to `CSc1cccc(NC(=S)N2CCCN(Cc3ccccc3F)C2)c1`, for which the AC50 is > 42 µM (inactive).
With `O=c1c2ccccc2nc(COc2ccccc2)n1/N=C/c1cn[nH]c1-c1ccccc1`, the AC50 is > 42 µM (inactive).
The value for `Nc1ccc(NC(=O)c2ccco2)c(Cl)c1` was > 42 µM (inactive); that for `O=C(O)c1cn(Cc2ccccn2)c(=O)c2ccccc12` was > 42 µM (inactive).
On to `CCN(CC)c1nc(Nc2ccc(Cl)cc2)nc(OCC#N)n1`, for which the AC50 is > 42 µM (inactive).
The same measure for `O=C(CCc1ccccc1)NNC(=S)Nc1ccc(F)cc1`: > 42 µM (inactive); for `COc1cc(COc2ccc3c(C)c(CC(=O)O)c(=O)oc3c2C)cc(OC)c1OC`: > 42 µM (inactive); for `Cc1ccccc1Cn1cc(NC(=O)c2cc3nc(-c4ccco4)cc(C(F)(F)F)n3n2)cn1`: > 42 µM (inactive).
The same measure for `Nc1ccc(C2(c3ccc(N)cc3)OC(=O)c3ccccc32)cc1`: > 42 µM (inactive).
For the compound `Cc1ccc(NC(=O)COC(=O)c2csc3c2CCC(C)C3)cc1S(=O)(=O)N1CCCCC1` (stereo not given), the AC50 is > 42 µM (inactive).
The same measure for `Cc1ccc(C)c(-n2nnnc2SCC(=O)Nc2c(C)n(C)n(-c3ccccc3)c2=O)c1`: > 42 µM (inactive); for `CCCCn1c2nc3ccccc3nc2c2c(=O)n(CCC)cnc21`: > 42 µM (inactive); for `Cn1c(=O)c2c(nc(N/N=C/c3ccc(OC(=O)c4ccco4)cc3)n2Cc2ccccc2Cl)n(C)c1=O`: > 42 µM (inactive).
Turning to `Cc1ccccc1-c1nc(CN2CCCC(C(=O)NCc3cccnc3)C2)c(C)o1` (stereo not given), the AC50 was > 42 µM (inactive).
The same measure for `Oc1c(Br)cc(Br)cc1C=Nc1cccnc1`: > 42 µM (inactive).
For `NC(=O)c1cc(S(=O)(=O)N2CCCC2)ccc1OCc1ccc(F)cc1`, the AC50 was > 42 µM (inactive).
The same measure for `CCn1cnc2sc(-c3ccccc3)cc2c1=O`: > 42 µM (inactive).
The same measure for `COc1ccc(-c2csc(NC(=O)CCS(=O)(=O)c3ccccc3)n2)c(OC)c1`: > 42 µM (inactive); for `CC(C)CCNC(=O)Nc1ccc2c(c1)N(C)C(=O)CS2`: > 42 µM (inactive).
As for `Cc1nn(C)cc1S(=O)(=O)Nc1ncccn1`, the AC50 was > 42 µM (inactive).
Take `CC1CCN(CCCCOc2ccc(F)cc2)CC1`: the AC50 was > 42 µM (inactive).
The value for `Cc1cccc(N/N=C/c2c(O)[nH]c(=S)[nH]c2=O)c1` was > 42 µM (inactive); that for `Cc1cc(CNC(=O)C2CCC(=O)N(Cc3ccccc3F)C2)on1` (stereo not given) was > 42 µM (inactive).
The value for `COC(=O)c1ccc(/C=N/NC(=O)C(=O)NCC2CCCO2)cc1` (stereo not given) was > 42 µM (inactive); that for `CC(=O)c1cccc(NC(=O)CN(c2cccc(F)c2)S(C)(=O)=O)c1` was > 42 µM (inactive).
The same measure for `CCOC(=O)N1CCN(C(=O)c2ccc3ccccc3c2)CC1`: > 42 µM (inactive); for `CCCCNC(=O)N1CCC(CCC(=O)N(C)Cc2ccccc2)CC1`: > 42 µM (inactive); for `CN(Cc1ccc(C(C)(C)C)cc1)C(=O)c1ccc2c(=O)n3c(nc2c1)CCC3`: > 42 µM (inactive).
Turning to `O=S(=O)(c1ccc(C2CCCCC2)cc1)N1CCCC1`, the AC50 is > 42 µM (inactive).
The same measure for `Cc1nc(SCC(=O)O)n[nH]1`: > 42 µM (inactive); for `O=C(Cc1cccs1)N1CCCC(c2nc3c(nnn3Cc3ccc(F)cc3)c(=O)[nH]2)C1` (stereo not given): > 42 µM (inactive); for `O=C(CSc1ncccn1)c1ccccc1Br`: > 42 µM (inactive).
The same measure for `O=[N+]([O-])c1cccc(-c2nc3ccc([N+](=O)[O-])cc3[nH]2)c1`: > 42 µM (inactive).
In the case of `CCC(CC)NC(=O)c1oc2ccccc2c1COc1ccccc1`, the AC50 is > 42 µM (inactive).
On to `CCOC(=O)N1CCN(c2cc3[nH]c(=S)[nH]c3cc2F)CC1`, for which the AC50 was > 42 µM (inactive).
The same measure for `CC1=C(C(=O)N2CCOCC2)C(c2ccc(O)cc2)NC(=S)N1` (stereo not given): > 42 µM (inactive); for `CCOc1ccc(Cl)cc1CNc1nnnn1CC`: > 42 µM (inactive); for `C=CCn1c(=N)c(C(=O)NCCCOC)cc2c(=O)n3ccccc3nc21`: > 42 µM (inactive).
For `CCOc1ccc(C(=O)Nc2ccc(CN3CCOCC3)cc2)cc1Br`, the AC50 was 41.9 µM.
